Legend:
[1] = system: human myeloid leukemia cell line THP1; test: Cell proliferation test (Cell Titer-Glo), THP1; type: cell-based; conditions: THP1 cells, cytarabine alone
Description: (§1) The cell proliferation test was performed using human myeloid leukemia cell line U-937 (ATCC, CRL-1593.2), MOLM-13 (DSMZ, ACC 554), HL60 (ATCC, CRL-240), SKM-1 (JCRB cell bank, JCRB0118), OCI-M2 (DSMZ, ACC 619), NOMO-1 (JCRB cell bank, IFO050474), MV4-11 (ATCC, CRL-9591), THP1 (ATCC, TIB-202), and human peripheral blood mononuclear cell PBMC (CTL, CTL-UP-1). As the culture medium of U-937 cells, MOLM-13 cells, HL60 cells, SKM-1 cells, OCI-M2 cells, NOMO-1 cells, MV4-11 cells, and THP1 cells, RPMI1640 (FUJIFILM Wako Pure Chemical Corporation, 189-02025) added with 10% fetal bovine serum (Thermo Fisher Scientific, Inc., 10437-028) and 1% penicillin-streptomycin (10,000 U/mL, Thermo Fisher Scientific, Inc., 15140-122) was used. […] After culturing overnight, 5 μL of FLA3527, ASLAN003, BAY2402234, or cytarabine (Ara-C, C2035, Tokyo Chemical Industry Co., Ltd.) at the predetermined concentration was added, and 3 days later, 25 μL of Cell Titer-Glo (registered trade mark) luminescent cell viability assay (Promega Corporation, G7573) was added, and the light emission amount was measured using an Envision plate reader (PerkinElmer, Inc.). […] The proliferation inhibition concentration for each compound concentration was calculated by the following expression. […]
(§2) The CI indicating the combined effect of Ara-C and the DHODH inhibitor compound was calculated using the software CalcuSyn of Biosoft.

[2] = system: human myeloid leukemia cell line MV4-11; test: Cell proliferation test (Cell Titer-Glo), MV4-11; type: cell-based; conditions: MV4-11 cells, Ara-C alone
Description: as §1, §2

## Nc1ccn([C@@H]2O[C@H](CO)[C@@H](O)[C@@H]2O)c(=O)n1 [Ara-C, cytarabine]
[1]
  cytarabine sensitivity of the cell line: insensitive
[2]
  Ara-C sensitivity of the cell line: sensitive

Reference: patent US11890296B2, “Anti-tumor agent containing cytarabine, anti- tumor effect enhancing agent which is used in combination with cytarabine, anti-tumor kit, and anti-tumor agent which is used in combination with cytarabine” (priority 2018, dated 2024)
